Source: ChEMBL document CHEMBL1151449, “In vitro activity of DC-159a, a new broad-spectrum fluoroquinolone, compared with that of other agents against drug-susceptible and -resistant pneumococci” (2008)

Columns and labels:
Format in all cases: functional
[1] = test system: Streptococcus pneumoniae; assay: Antibacterial activity against Streptococcus pneumoniae HMC 1150 harboring S81C mutation in quinolone-resistant determining regions of GyrA gene, S79F mutation in QRDR of ParC gene and I460V mutation in QRDR of ParE gene by agar dilution method
[2] = test system: Streptococcus pneumoniae; assay: Antibacterial activity against Streptococcus pneumoniae HMC 1073 harboring S81F mutation in quinolone-resistant determining regions of GyrA gene, and I460V mutation in QRDR of ParE gene by agar dilution method
[3] = test system: Streptococcus pneumoniae; assay: Antibacterial activity against Streptococcus pneumoniae HMC 1076 harboring S81F mutation in quinolone-resistant determining regions of GyrA gene, D83N mutation in QRDR of ParC gene and I460V mutation in QRDR of ParE gene by agar dilution method
[4] = test system: Streptococcus pneumoniae; assay: Antibacterial activity against Streptococcus pneumoniae HMC 1147 harboring S81F mutation in quinolone-resistant determining regions of GyrA gene, S79F mutation in QRDR of ParC gene and I460V mutation in QRDR of ParE gene showing efflux to gemifloxacin by agar dilution method
[5] = test system: Streptococcus pneumoniae; assay: Antibacterial activity against Streptococcus pneumoniae HMC 1146 harboring S81F mutation in quinolone-resistant determining regions of GyrA gene, and D435N mutation in QRDR of ParE gene by agar dilution method
[6] = test system: Streptococcus pneumoniae; assay: Antibacterial activity against Streptococcus pneumoniae HMC 1066 harboring S81F mutation in quinolone-resistant determining regions of GyrA gene, S79F mutation in QRDR of ParC gene and I460V mutation in QRDR of ParE gene by agar dilution method
[7] = test system: Streptococcus pneumoniae; assay: Antibacterial activity against Streptococcus pneumoniae HMC 1071 harboring S81F mutation in quinolone-resistant determining regions of GyrA gene and S79F, K137N mutation in QRDR of ParC gene by agar dilution method
[8] = test system: Streptococcus pneumoniae; assay: Antibacterial activity against Streptococcus pneumoniae HMC 1070 harboring S81F mutation in quinolone-resistant determining regions of GyrA gene, D83N mutation in QRDR of ParC gene and I460V mutation in QRDR of ParE gene by agar dilution method
[9] = test system: Streptococcus pneumoniae; assay: Antibacterial activity against Streptococcus pneumoniae HMC 1072 harboring S81F mutation in quinolone-resistant determining regions of GyrA gene, S79Y mutation in QRDR of ParC gene and I460V mutation in QRDR of ParE gene by agar dilution method
[10] = test system: Streptococcus pneumoniae; assay: Antibacterial activity against Streptococcus pneumoniae HMC 1062 harboring S81F mutation in quinolone-resistant determining regions of GyrA gene, S79F mutation in QRDR of ParC gene and I460V mutation in QRDR of ParE gene by agar dilution method
[11] = test system: Streptococcus pneumoniae; assay: Antibacterial activity against Streptococcus pneumoniae HMC 1058 harboring S79F, K137N mutation in quinolone-resistant determining regions of ParC gene and 460V mutation in QRDR of ParE gene by agar dilution method
[12] = test system: Streptococcus pneumoniae; assay: Antibacterial activity against Streptococcus pneumoniae HMC 2536 harboring S81Y mutation in quinolone-resistant determining regions of GyrA gene, S79F, K137N mutation in QRDR of ParC gene and I460V mutation in QRDR of ParE gene by agar dilution method
[13] = test system: Streptococcus pneumoniae; assay: Antibacterial activity against Streptococcus pneumoniae HMC 1055 harboring S81F mutation in quinolone-resistant determining regions of GyrA gene, S79F, K137N mutation in QRDR of ParC gene and I460V mutation in QRDR of ParE gene by agar dilution method
[14] = test system: Streptococcus pneumoniae; assay: Antibacterial activity against Streptococcus pneumoniae HMC 2538 harboring S81Y mutation in quinolone-resistant determining regions of GyrA gene, S79F, K137N mutation in QRDR of ParC gene and I460V mutation in QRDR of ParE gene showing efflux to ciprofloxacin, levofloxacin, gatifloxacin by agar dilution method
[15] = test system: Streptococcus pneumoniae; assay: Antibacterial activity against Streptococcus pneumoniae HMC 1077 harboring S81Y and S79F mutation in quinolone-resistant determining regions of GyrA and ParC genes respectively by agar dilution method
[16] = test system: Streptococcus pneumoniae; assay: Antibacterial activity against Streptococcus pneumoniae HMC 1059 harboring S81F mutation in quinolone-resistant determining regions of GyrA gene, S79F, K137N mutation in QRDR of ParC gene and I460N mutation in QRDR of ParE gene by agar dilution method
[17] = test system: Streptococcus pneumoniae; assay: Antibacterial activity against Streptococcus pneumoniae HMC 1078 harboring S81F mutation in quinolone-resistant determining regions of GyrA gene, S79F mutation in QRDR of ParC gene and I460V mutation in QRDR of ParE gene by agar dilution method
[18] = test system: Streptococcus pneumoniae; assay: Antibacterial activity against Streptococcus pneumoniae HMC 2527 harboring S81Y mutation in quinolone-resistant determining regions of GyrA gene, S79F, K137N mutation in QRDR of ParC gene and I460V mutation in QRDR of ParE gene by agar dilution method
[19] = test system: Streptococcus pneumoniae; assay: Antibacterial activity against Streptococcus pneumoniae HMC 1156 harboring S81F and S79F mutation in quinolone-resistant determining regions of GyrA and ParC genes respectively showing efflux to ciprofloxacin, gemifloxacin by agar dilution method
[20] = test system: Streptococcus pneumoniae; assay: Antibacterial activity against Streptococcus pneumoniae HMC 1151 harboring D83N, K137N mutation in quinolone-resistant determining regions of ParC gene and I460V mutation in QRDR of ParE gene showing efflux to ciprofloxacin, gemifloxacin by agar dilution method
[21] = test system: Streptococcus pneumoniae; assay: Antibacterial activity against Streptococcus pneumoniae HMC 4026 harboring S81Y mutation in quinolone-resistant determining regions of GyrA gene, S79F, K137N mutation in QRDR of ParC gene and I460V mutation in QRDR of ParE gene by agar dilution method
[22] = test system: Streptococcus pneumoniae; assay: Antibacterial activity against Streptococcus pneumoniae HMC 1149 harboring S81F and S79Y mutation in quinolone-resistant determining regions of GyrA and ParC genes respectively showing efflux to ciprofloxacin, gemifloxacin by agar dilution method
[23] = test system: Streptococcus pneumoniae; assay: Antibacterial activity against Streptococcus pneumoniae HMC 1068 harboring E85K mutation in quinolone-resistant determining regions of GyrA gene, S79Y, K137N mutation in QRDR of ParC gene and I460V mutation in QRDR of ParE gene showing efflux to ciprofloxacin, levofloxacin by agar dilution method
[24] = test system: Streptococcus pneumoniae; assay: Antibacterial activity against Streptococcus pneumoniae HMC 1060 harboring S81F mutation in quinolone-resistant determining regions of GyrA gene, S79F, K137N mutation in QRDR of ParC gene and I460V mutation in QRDR of ParE gene by agar dilution method
[25] = test system: Streptococcus pneumoniae; assay: Antibacterial activity against Streptococcus pneumoniae HMC 1541 harboring S81Y mutation in quinolone-resistant determining regions of GyrA gene, S79F, K137N mutation in QRDR of ParC gene and I460V mutation in QRDR of ParE gene by agar dilution method
[26] = test system: Streptococcus pneumoniae; assay: Antibacterial activity against Streptococcus pneumoniae HMC 1139 harboring S81F mutation in quinolone-resistant determining regions of GyrA gene, S79F, K137N mutation in QRDR of ParC gene and I460V mutation in QRDR of ParE gene by agar dilution method
[27] = test system: Streptococcus pneumoniae; assay: Antibacterial activity against Streptococcus pneumoniae HMC 5041 harboring S81F and S79F mutation in quinolone-resistant determining regions of GyrA and ParC genes respectively by agar dilution method
[28] = test system: Streptococcus pneumoniae; assay: Antibacterial activity against quinolone-resistant Streptococcus pneumoniae […] by agar dilution method
[29] = test system: Streptococcus pneumoniae; assay: Antibacterial activity against Streptococcus pneumoniae HMC 1074 harboring S81F mutation in quinolone-resistant determining regions of GyrA gene, S79F mutation in QRDR of ParC gene and I460V mutation in QRDR of ParE gene by agar dilution method
[30] = test system: Streptococcus pneumoniae; assay: Antibacterial activity against azithromycin-susceptible Streptococcus pneumoniae ATCC 49619 by agar dilution method
[31] = test system: Streptococcus pneumoniae; assay: Antibacterial activity against penicillin-susceptible Streptococcus pneumoniae ATCC 49619 by agar dilution method
[32] = test system: Streptococcus pneumoniae; assay: Antibacterial activity against quinolone-susceptible Streptococcus pneumoniae ATCC 49619 by agar dilution method
[33] = test system: Streptococcus pneumoniae; assay: Antibacterial activity against penicillin-intermediate Streptococcus pneumoniae […] by agar dilution method
[34] = test system: Streptococcus pneumoniae; assay: Antibacterial activity against penicillin-, macrolide-susceptible and quinolone-resistant Streptococcus pneumoniae HMC 1074 harboring S81F, E85K mutation in quinolone-resistant determining regions of GyrA gene, S79F mutation in QRDR of ParC gene and I460V mutation in QRDR of ParE gene after 27 passages with gemifloxacin measured after 10 daily antibiotic-free subculturing by multi-step resistance selection technique
[35] = test system: Streptococcus pneumoniae; assay: Antibacterial activity against azithromycin-resistant Streptococcus pneumoniae […] by agar dilution method
[36] = test system: Streptococcus pneumoniae; assay: Antibacterial activity against penicillin-resistant Streptococcus pneumoniae […] by agar dilution method

O=C(O)c1cn(C2CC2)c2cc(N3CCNCC3)c(F)cc2c1=O [CIPROFLOXACIN]
16 µg/mL: MIC [1] | MIC [3] | MIC [6] | MIC [11] | MIC [12] | MIC [14] | MIC [18] | MIC [20] | MIC [22] | MIC [24] | MIC [25] | MIC [27] | MIC50 [28] | MIC [29]
8 µg/mL: MIC [2]
> 32 µg/mL: MIC [8] | MIC [9] | MIC [10] | MIC [15] | MIC [17] | MIC [19] | MIC [21] | MIC90 [28]
32 µg/mL: MIC [4] | MIC [5] | MIC [7] | MIC [13] | MIC [16] | MIC [23] | MIC [26]

C[C@H]1COc2c(N3CCN(C)CC3)c(F)cc3c(=O)c(C(=O)O)cn1c23.C[C@H]1COc2c(N3CCN(C)CC3)c(F)cc3c(=O)c(C(=O)O)cn1c23.O [LEVOFLOXACIN]
2 µg/mL: MIC90 [35]
8 µg/mL: MIC90 [30] | MIC90 [36]
16 µg/mL: MIC50 [28] | MIC90 [28]
1 µg/mL: MIC50 [30] | MIC50 [31] | MIC50 [32] | MIC90 [32] | MIC50 [33] | MIC90 [33] | MIC50 [35] | MIC50 [36]
4 µg/mL: MIC90 [31]
64 µg/mL: MIC [34]

CC1(C)S[C@@H]2[C@H](NC(=O)Cc3ccccc3)C(=O)N2[C@H]1C(=O)O [PENICILLIN G]
0.5 µg/mL: MIC50 [35] | MIC50 [28]
1 µg/mL: MIC90 [33]
0.03 µg/mL: MIC50 [31]
0.25 µg/mL: MIC50 [30] | MIC50 [32] | MIC50 [33]
2 µg/mL: MIC90 [30] | MIC50 [36]
4 µg/mL: MIC90 [32] | MIC90 [35] | MIC90 [36] | MIC90 [28]
0.06 µg/mL: MIC90 [31]

CC[C@H]1OC(=O)[C@H](C)C(=O)[C@H](C)[C@@H](O[C@@H]2O[C@H](C)C[C@H](N(C)C)[C@H]2O)[C@](C)(OC)C[C@@H](C)C(=O)[C@H](C)[C@H]2N(CCCCn3cnc(-c4cccnc4)c3)C(=O)O[C@]12C [TELITHROMYCIN]
0.06 µg/mL: MIC50 [35] | MIC50 [36]
0.03 µg/mL: MIC90 [30] | MIC50 [31] | MIC50 [32] | MIC50 [33]
0.12 µg/mL: MIC90 [31] | MIC90 [32] | MIC90 [33]
0.016 µg/mL: MIC50 [30] | MIC50 [28]
0.25 µg/mL: MIC90 [35] | MIC90 [36] | MIC90 [28]
